What was measured:
Format in all cases: cell-based
J774.1 [1] = test: Inhibition of nitric oxides synthase in mouse J774.1 cells assessed as inhibition of LPS-induced NO release at 100 ug/mL after 48 hrs by Griess assay relative to control
J774.1 [2] = test: Inhibition of nitric oxides synthase in mouse J774.1 cells assessed as inhibition of LPS-induced NO release at 1 ug/mL after 48 hrs by Griess assay relative to control
[3] = Cytotoxicity against mouse J774.1 cells assessed as cell viability after 48 hrs by MTT assay; settings: read-out: Activity

## C[C@H]1O[C@H](O[C@@H]2[C@@H](O)[C@H](OCCc3ccc(O)c(O)c3)O[C@H](CO[C@H]3O[C@@H](CO)[C@H](O)[C@@H](O)[C@@H]3O)[C@H]2OC(=O)/C=C/c2ccc(O)c(O)c2)[C@@H](O)[C@@H](O)[C@@H]1O
J774.1 [1]
  inhibition: 10.4%

## COc1cc(/C=C/CO)cc(OC)c1O[C@@H]1O[C@H](CO)[C@@H](O[C@@H]2O[C@H](CO)[C@@H](O)[C@H](O)[C@H]2O)[C@H](O)[C@H]1O
J774.1 [1]
  inhibition: 22.3%

## C=C1C(=O)O[C@@H]2/C=C(\C)CC/C=C(\C)CC[C@@H]12 [COSTUNOLIDE]
J774.1 [1]
  inhibition: 94.6%
J774.1 [2]
  inhibition: 50.3%
[3]
  viability at 48 h: 92%

## COc1cc(/C=C/CO)cc(OC)c1O[C@@H]1O[C@H](CO)[C@@H](O)[C@H](O)[C@H]1O
J774.1 [1]
  inhibition: 12.3%

From ChEMBL document CHEMBL1158298, “Syringin 4-O-beta-glucoside, a new phenylpropanoid glycoside, and costunolide, a nitric oxide synthase inhibitor, from the stem bark of Magnolia sieboldii” (J Nat Prod, 1996)
